Test results taken from ChEMBL document CHEMBL1201862, “PubChem BioAssay data set” (2004).
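Each compound was tested at five concentrations against cells in 96-well plates for 48 hours. At the GI50, growth is halved.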 Calls of active or inactive are those of the source. Rule as the data show it: active = GI50 up to about 1.1 µM and inactive = higher.

How the values were obtained:
Assay in all cases: NCI anticancer screen, dose series, 48 h
A498 = system: A498
ACHN = system: ACHN
OVCAR-3 = system: OVCAR-3
HCT-15 = system: HCT-15
OVCAR-5 = system: OVCAR-5
K562 = system: K562
PC-3 = system: PC-3
MCF7 = system: MCF7
UACC-62 = system: UACC-62
MDA-MB-435 = system: MDA-MB-435
U-251 = system: U-251
SR = system: SR
UO-31 = system: UO-31
MDA-N = system: MDA-N
HT-29 = system: HT-29
OVCAR-4 = system: OVCAR-4
A549 = system: A549
MOLT-4 = system: MOLT-4
HL-60 = system: HL-60
SF-268 = system: SF-268
OVCAR-8 = system: OVCAR-8
SW-620 = system: SW-620
SN12C = system: SN12C
NCI/ADR-RES = system: NCI/ADR-RES
Malme-3M = system: Malme-3M
HCC 2998 = system: HCC 2998
HOP-62 = system: HOP-62
M14 = system: M14
COLO 205 = system: COLO 205
NCI-H23 = system: NCI-H23
786-0 = system: 786-0
Hs-578T = system: Hs-578T
SK-OV-3 = system: SK-OV-3
KM12 = system: KM12
T47D = system: T47D
NCI-H460 = system: NCI-H460
MDA-MB-231 = system: MDA-MB-231
SK-MEL-2 = system: SK-MEL-2
LOX IMVI = system: LOX IMVI
HCT-116 = system: HCT-116
DU-145 = system: DU-145
CAKI-1 = system: CAKI-1
TK-10 = system: TK-10
SNB-19 = system: SNB-19
HOP-92 = system: HOP-92
RXF 393 = system: RXF 393
SK-MEL-5 = system: SK-MEL-5
CCRF-CEM = system: CCRF-CEM
RPMI-8226 = system: RPMI-8226
SNB-75 = system: SNB-75
IGROV-1 = system: IGROV-1
UACC-257 = system: UACC-257
EKVX = system: EKVX
SK-MEL-28 = system: SK-MEL-28
SF-295 = system: SF-295
NCI-H226 = system: NCI-H226
SF-539 = system: SF-539
NCI-H522 = system: NCI-H522

Nc1ncnc2c(C3OC(CO)C(O)C3O)nsc12 (stereo unspecified)
GI50 (A498): < 0.0115 µM (active)

CNC(=S)N(C1CCCCC1)C1CCCCC1
GI50 (ACHN): 98.4 µM (inactive)
GI50 (OVCAR-3): > 100 µM (inactive)
GI50 (HCT-15): > 100 µM
GI50 (OVCAR-5): > 100 µM (inactive)
GI50 (K562): 29.9 µM (inactive)
GI50 (PC-3): 35.1 µM (inactive)
GI50 (MCF7): 54.8 µM (inactive)
GI50 (UACC-62): > 100 µM (inactive)
GI50 (MDA-MB-435): > 100 µM (inactive)
GI50 (U-251): > 100 µM (inactive)
GI50 (SR): 42.4 µM (inactive)
GI50 (UO-31): 85.5 µM (inactive)
GI50 (MDA-N): > 100 µM (inactive)
GI50 (HT-29): 41.1 µM (inactive)
GI50 (OVCAR-4): 90.6 µM (inactive)
GI50 (A549): 56.9 µM (inactive)
GI50 (MOLT-4): 37.3 µM (inactive)
GI50 (HL-60): 27.4 µM (inactive)
GI50 (SF-268): > 100 µM (inactive)
GI50 (OVCAR-8): > 100 µM (inactive)
GI50 (SW-620): > 100 µM (inactive)
GI50 (SN12C): > 100 µM (inactive)
GI50 (NCI/ADR-RES): > 100 µM (inactive)
GI50 (Malme-3M): 47 µM (inactive)
GI50 (HCC 2998): > 100 µM (inactive)
GI50 (HOP-62): > 100 µM (inactive)
GI50 (M14): > 100 µM (inactive)
GI50 (COLO 205): 66.1 µM (inactive)
GI50 (NCI-H23): 82.8 µM (inactive)
GI50 (786-0): > 100 µM (inactive)
GI50 (Hs-578T): 26.3 µM (inactive)
GI50 (SK-OV-3): > 100 µM (inactive)
GI50 (KM12): 55.8 µM (inactive)
GI50 (T47D): 44 µM (inactive)
GI50 (NCI-H460): 50.9 µM (inactive)
GI50 (MDA-MB-231): > 100 µM (inactive)
GI50 (SK-MEL-2): 76.9 µM (inactive)
GI50 (LOX IMVI): > 100 µM (inactive)
GI50 (HCT-116): 54 µM (inactive)
GI50 (DU-145): > 100 µM (inactive)
GI50 (CAKI-1): 70.6 µM (inactive)
GI50 (TK-10): > 100 µM (inactive)
GI50 (SNB-19): > 100 µM (inactive)
GI50 (HOP-92): 50.8 µM (inactive)
GI50 (RXF 393): > 100 µM (inactive)
GI50 (SK-MEL-5): 49 µM (inactive)
GI50 (CCRF-CEM): 33.1 µM (inactive)
GI50 (RPMI-8226): 35.7 µM (inactive)
GI50 (SNB-75): 65.3 µM (inactive)
GI50 (IGROV-1): > 100 µM (inactive)
GI50 (UACC-257): 34.1 µM (inactive)
GI50 (EKVX): 34.8 µM (inactive)
GI50 (SK-MEL-28): > 100 µM (inactive)
GI50 (SF-295): 61.2 µM (inactive)
GI50 (NCI-H226): > 100 µM (inactive)
GI50 (SF-539): > 100 µM (inactive)

CN(C)CCCNC(=O)N/N=C/c1ccccn1
GI50 (ACHN): > 10 µM (inactive)
GI50 (HCT-15): > 10 µM
GI50 (OVCAR-5): > 10 µM (inactive)
GI50 (K562): > 10 µM (inactive)
GI50 (PC-3): > 10 µM (inactive)
GI50 (MCF7): > 10 µM (inactive)
GI50 (UACC-62): > 10 µM (inactive)
GI50 (SR): > 10 µM (inactive)
GI50 (UO-31): > 10 µM (inactive)
GI50 (MDA-N): > 10 µM (inactive)
GI50 (HT-29): > 10 µM (inactive)
GI50 (OVCAR-4): > 10 µM (inactive)
GI50 (A549): > 10 µM (inactive)
GI50 (MOLT-4): > 10 µM (inactive)
GI50 (HL-60): > 10 µM (inactive)
GI50 (SF-268): > 10 µM (inactive)
GI50 (OVCAR-8): > 10 µM (inactive)
GI50 (SW-620): > 10 µM (inactive)
GI50 (SN12C): > 10 µM (inactive)
GI50 (NCI/ADR-RES): > 10 µM (inactive)
GI50 (Malme-3M): > 10 µM (inactive)
GI50 (HCC 2998): > 10 µM (inactive)
GI50 (HOP-62): > 10 µM (inactive)
GI50 (M14): > 10 µM (inactive)
GI50 (COLO 205): > 10 µM (inactive)
GI50 (Hs-578T): > 10 µM (inactive)
GI50 (SK-OV-3): > 10 µM (inactive)
GI50 (KM12): > 10 µM (inactive)
GI50 (T47D): > 10 µM (inactive)
GI50 (NCI-H460): > 10 µM (inactive)
GI50 (MDA-MB-231): > 10 µM (inactive)
GI50 (LOX IMVI): > 10 µM (inactive)
GI50 (A498): > 10 µM (inactive)
GI50 (NCI-H522): > 10 µM (inactive)
GI50 (HCT-116): > 10 µM (inactive)
GI50 (DU-145): > 10 µM (inactive)
GI50 (TK-10): > 10 µM (inactive)
GI50 (HOP-92): > 10 µM (inactive)
GI50 (RXF 393): > 10 µM (inactive)
GI50 (SK-MEL-5): > 10 µM (inactive)
GI50 (CCRF-CEM): > 10 µM (inactive)
GI50 (RPMI-8226): > 10 µM (inactive)
GI50 (SNB-75): > 10 µM (inactive)
GI50 (IGROV-1): > 10 µM (inactive)
GI50 (UACC-257): 9.42 µM (inactive)
GI50 (EKVX): > 10 µM (inactive)
GI50 (SK-MEL-28): > 10 µM (inactive)
GI50 (SF-295): > 10 µM (inactive)
GI50 (SF-539): > 10 µM (inactive)

CN(C)C(=S)N1C(=S)N(c2ccccc2)C(=N/c2ccccc2)/C1=N\c1ccccc1
GI50 (ACHN): > 100 µM (inactive)
GI50 (HCT-15): > 100 µM
GI50 (OVCAR-5): > 100 µM (inactive)
GI50 (K562): > 100 µM (inactive)
GI50 (PC-3): > 100 µM (inactive)
GI50 (UACC-62): > 100 µM (inactive)
GI50 (MDA-MB-435): > 100 µM (inactive)
GI50 (U-251): > 100 µM (inactive)
GI50 (SR): > 100 µM (inactive)
GI50 (UO-31): > 100 µM (inactive)
GI50 (MDA-N): > 100 µM (inactive)
GI50 (HT-29): > 100 µM (inactive)
GI50 (OVCAR-4): > 100 µM (inactive)
GI50 (A549): > 100 µM (inactive)
GI50 (MOLT-4): > 100 µM (inactive)
GI50 (HL-60): > 100 µM (inactive)
GI50 (SF-268): > 100 µM (inactive)
GI50 (OVCAR-8): > 100 µM (inactive)
GI50 (SW-620): > 100 µM (inactive)
GI50 (SN12C): > 100 µM (inactive)
GI50 (NCI/ADR-RES): > 100 µM (inactive)
GI50 (Malme-3M): > 100 µM (inactive)
GI50 (HCC 2998): > 100 µM (inactive)
GI50 (HOP-62): > 100 µM (inactive)
GI50 (COLO 205): > 100 µM (inactive)
GI50 (NCI-H23): > 100 µM (inactive)
GI50 (786-0): > 100 µM (inactive)
GI50 (Hs-578T): > 100 µM (inactive)
GI50 (SK-OV-3): > 100 µM (inactive)
GI50 (KM12): > 100 µM (inactive)
GI50 (T47D): > 100 µM (inactive)
GI50 (NCI-H460): > 100 µM (inactive)
GI50 (MDA-MB-231): > 100 µM (inactive)
GI50 (SK-MEL-2): > 100 µM (inactive)
GI50 (LOX IMVI): > 100 µM (inactive)
GI50 (A498): > 100 µM (inactive)
GI50 (NCI-H522): 6.82 µM (inactive)
GI50 (HCT-116): > 100 µM (inactive)
GI50 (DU-145): > 100 µM (inactive)
GI50 (CAKI-1): > 100 µM (inactive)
GI50 (TK-10): > 100 µM (inactive)
GI50 (SNB-19): > 100 µM (inactive)
GI50 (HOP-92): > 100 µM (inactive)
GI50 (RXF 393): > 100 µM (inactive)
GI50 (SK-MEL-5): > 100 µM (inactive)
GI50 (CCRF-CEM): > 100 µM (inactive)
GI50 (RPMI-8226): > 100 µM (inactive)
GI50 (SNB-75): > 100 µM (inactive)
GI50 (IGROV-1): > 100 µM (inactive)
GI50 (UACC-257): > 100 µM (inactive)
GI50 (EKVX): > 100 µM (inactive)
GI50 (SK-MEL-28): > 100 µM (inactive)
GI50 (SF-295): > 100 µM (inactive)
GI50 (NCI-H226): > 100 µM (inactive)
GI50 (SF-539): > 100 µM (inactive)
